Reference: US8389508B2 (Glaxo Group Limited, priority 2010, dated 2013)
Structures can show the parent of a compound that is named as a salt.

molecular target: T1, human Endothelial Differentiation Gene 1 (EDG1), S1P1 receptor (Homo sapiens, UniProt P21453); experiment: S1P1 Assay (Tango EDG1-bla/U2OS beta-lactamase reporter, agonist dose response); format: cell-based; settings: EDG1-bla/U2OS cells, blue/green emission ratio, 10 point dose response, free base or salt form; read-out: pEC50 (S1P1 assay) (converted)
T1 construct: TEV protease site; Gal4-VP16 transcription factor; expressed in transfected cells; host or cells: EDG1-bla/U2OS (Tango GPCR-bla U2OS parental cell line)
Experimental: Recombinant EDG1-bla/U2OS cells (contain the human Endothelial Differentiation Gene 1 (EDG1) linked to a TEV protease site and a Gal4-VP16 transcription factor stably integrated into the Tango GPCR-bla U2OS parental cell line) were harvested from growth medium and passaged into assay medium (Invitrogen Freestyle Expression Medium). The cells were starved for 24 hours at 37° C., 5% CO2, harvested and resuspended in assay medium at a density of ˜200,000 cells/ml. All test compounds were dissolved in DMSO at a concentration of 10 mM and were prepared in 100% DMSO to provide 10 point dose response curves. Test compounds in the free base or in a salt form were prepared by Velocity11 Bravo automation (Agilent) were added to wells in columns 2-11 and 13-22; DMSO was added to wells in columns 12 and 23 as unstimulated controls and assay medium was added to wells in columns 1 and 24 as cell-free controls. An S1P1 agonist was added to wells in row 2, columns 2-11 as stimulated controls and test compounds were added to wells in row 2, columns 13-22 and rows 3-15, columns 2-11/13-22 (row 1 and 16 were empty and not used). Compounds in solution were added to the assay plate (Greiner 781090) using an Echo (Labcyte) dose-response program (50 nl/well). The unstimulated and cell-free controls were loaded with 50 nl/well pure DMSO to ensure that the DMSO concentration was constant across the plate for all assays. 50 μl of the cell suspension was added to each well in columns 2-23 of the plate (˜10,000 cells per well). 50 μl of assay medium was added to each well in the cell-free controls (columns 1 and 24). The cells were incubated overnight at 37° C./5% CO2.
(§1) 10 μl of 6× substrate mixture (LiveBLAzer™-FRET B/G substrate (CCF4-AM) Cat # K1096 from Invitrogen, Inc.) was added to each well using Bravo automation and the plates incubated at room temperature for 2 h in the dark. The plate was finally read on EnVision using one excitation channel (409 nm) and two emission channels (460 nm and 530 nm).
(§2) The blue/green emission ratio (460 nm/530 nm) was calculated for each well, by dividing the background-subtracted Blue emission values by the background-subtracted Green emission values. The dose response curve is based on sigmoidal dose-response model. All ratio data was normalized based upon the maximum emission ratio of positive control and minimum emission ratio of negative control (DMSO) on each plate. The intrinsic activity (IA) of each compound is defined as relative response normalised to a reference compound, whose maximum response is defined as 100% after curve fitting.

T1 sequence (P21453 whole entry, the tested form may be a part): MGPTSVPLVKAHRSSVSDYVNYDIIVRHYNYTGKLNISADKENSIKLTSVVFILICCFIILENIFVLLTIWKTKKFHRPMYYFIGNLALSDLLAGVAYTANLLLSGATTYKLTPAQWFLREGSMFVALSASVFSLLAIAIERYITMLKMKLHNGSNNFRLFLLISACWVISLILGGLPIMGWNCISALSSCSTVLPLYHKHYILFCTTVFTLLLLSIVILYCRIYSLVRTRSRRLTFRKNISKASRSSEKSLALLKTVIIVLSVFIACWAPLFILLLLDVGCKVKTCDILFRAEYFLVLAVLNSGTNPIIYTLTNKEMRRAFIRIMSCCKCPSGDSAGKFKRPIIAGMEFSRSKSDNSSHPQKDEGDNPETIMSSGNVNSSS

| EC50 [nM] | SMILES |
| --- | --- |
| < 1 | CCc1c(CCN2CCC(C(=O)O)CC2)cccc1-c1nsc(-c2ccc(OC(C)C)c(Cl)c2)n1 [Example 24, 1-{2-[3-(5-{3-chloro-4-[(1-methylethyl)oxy]phenyl}-1,2,4-thiadiazol-3-yl)-2-ethylphenyl]ethyl}-4-piperidinecarboxylic acid trifluoroacetate] |
| < 1 | CCc1c(CN2CC(C(=O)O)C2)cccc1-c1nsc(-c2ccc(OC(C)C)c(C(F)(F)F)c2)n1 [Example 19, 1-[(2-ethyl-3-{5-[4-[(1-methylethyl)oxy]-3-(trifluoromethyl)phenyl]-1,2,4-thiadiazol-3-yl}phenyl)methyl]-3-azetidinecarboxylic acid] |
| < 1 | CCc1c(CCN2CCC(C(=O)O)CC2)cccc1-c1nsc(-c2ccc(CC(C)C)c(C#N)c2)n1 [Example 29, 1-[2-(3-{5-[3-cyano-4-(2-methylpropyl)phenyl]-1,2,4-thiadiazol-3-yl}-2-ethylphenyl)ethyl]-4-piperidinecarboxylic acid trifluoroacetate] |
| ≤ 10 | CCc1c(CN2CC(C(=O)O)C2)cccc1-c1nsc(-c2ccc(OC(C)C)c(Cl)c2)n1 [Example 25, 1-{[3-(5-{3-chloro-4-[(1-methylethyl)oxy]phenyl}-1,2,4-thiadiazol-3-yl)-2-ethylphenyl]methyl}-3-azetidinecarboxylic acid trifluoroacetate] |
| < 1 | CCc1c(CCN2CCC(C(=O)O)CC2)cccc1-c1cnc(-c2ccc(OC(C)C)c(Cl)c2)s1 [Example 40, 1-{2-[3-(2-{3-chloro-4-[(1-methylethyl)oxy]phenyl}-1,3-thiazol-5-yl)-2-ethylphenyl]ethyl}-4-piperidinecarboxylic acid trifluoroacetate] |
| < 1 | CCc1c(CCN2CC(C(=O)O)C2)cccc1-c1nsc(-c2ccc(OC(C)C)c(Cl)c2)n1 [Example 23, 1-{2-[3-(5-{3-chloro-4-[(1-methylethyl)oxy]phenyl}-1,2,4-thiadiazol-3-yl)-2-ethylphenyl]ethyl}-3-azetidinecarboxylic acid trifluoroacetate] |
| < 1 | CCc1c(CCN2CC(C(=O)O)C2)cccc1-c1nnc(-c2ccc(OC(C)C)c(Cl)c2)s1 [Example 6, 1-{2-[3-(5-{3-chloro-4-[(1-methylethyl)oxy]phenyl}-1,3,4-thiadiazol-2-yl)-2-ethylphenyl]ethyl}-3-azetidinecarboxylic acid trifluoroacetate] |
| ≤ 10 | CCc1c(CN2CCC(C(=O)O)CC2)cccc1-c1cnc(-c2ccc(OC(C)C)c(C#N)c2)s1 [Example 35, 1-{[3-(2-{3-cyano-4-[(1-methylethyl)oxy]phenyl}-1,3-thiazol-5-yl)-2-ethylphenyl]methyl}-4-piperidinecarboxylic acid trifluoroacetate] |
| < 1 | CCc1c(CCN2CCC(C(=O)O)CC2)cccc1-c1nsc(-c2ccc(OC(C)C)c(C(F)(F)F)c2)n1 [Example 21, 1-[2-(2-ethyl-3-{5-[4-[(1-methylethyl)oxy]-3-(trifluoromethyl)phenyl]-1,2,4-thiadiazol-3-yl}phenyl)ethyl]-4-piperidinecarboxylic acid] |
| ≤ 10 | CCc1c(CN2CC(C(=O)O)C2)cccc1-c1nsc(-c2ccc(CC(C)C)c(C#N)c2)n1 [Example 27, 1-[(3-{5-[3-cyano-4-(2-methylpropyl)phenyl]-1,2,4-thiadiazol-3-yl}-2-ethylphenyl)methyl]-3-azetidinecarboxylic acid trifluoroacetate] |
| < 1 | CCc1c(CCN2CCC(C(=O)O)C2)cccc1-c1cnc(-c2ccc(OC(C)C)c(C#N)c2)s1 (centres unmarked) [Example 90] |
| < 1 | CCc1c(CN2CC(C(=O)O)C2)cccc1-c1nnc(-c2ccc(OC(C)C)c(C(F)(F)F)c2)s1 [Example 2, 1-[(2-ethyl-3-{5-[4-[(1-methylethyl)oxy]-3-(trifluoromethyl)phenyl]-1,3,4-thiadiazol-2-yl}phenyl)methyl]-3-azetidinecarboxylic acid] |
| < 1 | CCc1c(CCN2CC(C(=O)O)C2)cccc1-c1nsc(-c2ccc(OC(C)C)c(C(F)(F)F)c2)n1 [Example 22, 1-[2-(2-ethyl-3-{5-[4-[(1-methylethyl)oxy]-3-(trifluoromethyl)phenyl]-1,2,4-thiadiazol-3-yl}phenyl)ethyl]-3-azetidinecarboxylic acid] |

molecular target: T2, human Endothelial Differentiation G-protein Coupled Receptor 3 (EDG3), S1P3 receptor (Homo sapiens, UniProt Q99500); experiment: S1P3 Assay (GeneBLAzer EDG3-Ga15-NFAT-bla HEK 293T beta-lactamase reporter, agonist dose response); format: cell-based; settings: EDG3-Ga15-NFAT-bla HEK 293T cells, blue/green emission ratio, 10 point dose response, free base or salt form; read-out: pEC50 (S1P3 assay) (converted)
T2 construct: expressed in transfected cells; host or cells: GeneBLAzer EDG3-Ga15-NFAT-bla HEK 293T
Experimental: GeneBLAzer EDG3-Ga15-NFAT-bla HEK 293T cells (contain the human Endothelial Differentiation G-protein Coupled Receptor 3 (EDG3) and a beta-lactamase reporter gene under control of a NFAT response element and a promiscuous G Protein, Ga15, stably integrated into the GeneBLAzer Ga15-NFAT-bla HEK 293T cell line) were harvested from growth medium and suspended in assay medium (90% DMEM, 10% Charcoal-stripped FBS, 0.1 mM NEAA, 25 mM HEPES (pH 7.3), 100 U/ml penicillin, 100 μg/ml streptomycin) at a density of […]. All test compounds were dissolved in DMSO at a concentration of 10 mM and were prepared in 100% DMSO to provide 10 point dose response curves. Test compounds in the free base or in a salt form were prepared by Velocity 11 Bravo automation (Agilent) were added to wells in columns 2-11 and 13-22; DMSO was added to wells in columns 12 and 23 as unstimulated controls and assay medium was added to wells in columns 1 and 24 as cell-free controls. An S1P3 agonist was added to wells in row 2, columns 2-11 as stimulated controls and test compounds were added to wells in row 2, columns 13-22 and rows 3-15, columns 2-11/13-22 (row 1 and 16 were empty and not used). Compounds in solution were added to the assay plate (Greiner 781090) using an Echo (Labcyte) dose-response program (50 nl/well). The unstimulated and cell-free controls were loaded with 50 nl/well pure DMSO to ensure that the DMSO concentration was constant across the plate for all assays.
50 μl of the cell suspension was added to each well in columns 2-23 of the plate (˜10,000 cells per well). 50 μl of assay medium was added to each well in the cell-free controls (columns 1 and 24). The cells were incubated overnight at 37° C./5% CO2.
as §1, §2

T2 sequence (Q99500 whole entry): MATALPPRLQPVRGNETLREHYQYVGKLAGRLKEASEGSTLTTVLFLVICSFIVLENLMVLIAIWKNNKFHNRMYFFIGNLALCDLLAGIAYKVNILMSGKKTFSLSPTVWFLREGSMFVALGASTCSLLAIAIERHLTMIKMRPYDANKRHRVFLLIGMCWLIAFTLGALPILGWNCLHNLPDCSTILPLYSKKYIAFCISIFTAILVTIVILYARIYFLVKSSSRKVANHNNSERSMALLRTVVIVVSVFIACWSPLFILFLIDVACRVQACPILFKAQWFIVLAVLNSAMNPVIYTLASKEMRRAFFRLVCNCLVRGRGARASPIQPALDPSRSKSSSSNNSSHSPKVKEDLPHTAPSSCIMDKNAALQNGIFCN

| EC50 [nM] | SMILES |
| --- | --- |
| > 10000 | CCc1c(CN2CCC(C(=O)O)CC2)cccc1-c1nsc(-c2ccc(OC(C)C)c(C#N)c2)n1 [Example 16, 1-{[3-(5-{3-cyano-4-[(1-methylethyl)oxy]phenyl}-1,2,4-thiadiazol-3-yl)-2-ethylphenyl]methyl}-4-piperidinecarboxylic acid trifluoroacetate] |
| > 3160 | CCc1c(CCN2CC[C@H](C(=O)O)C2)cccc1-c1nsc(-c2ccc(OC(C)C)c(Cl)c2)n1 [Example 68] |
| > 3160 | CCc1c(-c2nnc(-c3ccc(OC(C)C)c(Cl)c3)s2)cccc1C1CCN(CCC(=O)O)CC1 [Example 95, 3-{4-[3-(5-{3-chloro-4-[(1-methylethyl)oxy]phenyl}-1,3,4-thiadiazol-2-yl)-2-ethylphenyl]-1-piperidinyl}propanoic acid trifluoroacetate] |
| > 10000 | CCc1c(CN2CCC[C@H]2C(=O)O)cccc1-c1cnc(-c2ccc(OC(C)C)c(C#N)c2)s1 [Example 81, 1-{[3-(2-{3-cyano-4-[(1-methylethyl)oxy]phenyl}-1,3-thiazol-5-yl)-2-ethylphenyl]methyl}-L-proline trifluoroacetate] |
| > 10000 | CCc1c(CN2C[C@H](O)C[C@H]2C(=O)O)cccc1-c1cnc(-c2ccc(OC(C)C)c(C#N)c2)s1 [Example 85] |
| > 3160 | CCc1c(CCN2CCC[C@H](C(=O)O)C2)cccc1-c1nsc(-c2ccc(OC(C)C)c(Cl)c2)n1 [Example 71] |
| > 3160 | CCc1c(CCN2CCC(C(=O)O)C2)cccc1-c1nsc(-c2ccc(OC(C)C)c(Cl)c2)n1 (centres unmarked) [Example 67] |
| > 3160 | CCc1c(-c2nnc(-c3ccc(OC(C)C)c(Cl)c3)s2)cccc1C1CCN(CCCC(=O)O)CC1 [Example 97, 4-{4-[3-(5-{3-chloro-4-[(1-methylethyl)oxy]phenyl}-1,3,4-thiadiazol-2-yl)-2-ethylphenyl]-1-piperidinyl}butanoic acid trifluoroacetate] |
| > 10000 | CCc1c(CN2CCCC(C(=O)O)C2)cccc1-c1cnc(-c2ccc(OC(C)C)c(C#N)c2)s1 (centres unmarked) [Example 86] |
| > 10000 | CCc1c(CN2CCC(CC(=O)O)CC2)cccc1-c1nsc(-c2ccc(OC(C)C)c(C(F)(F)F)c2)n1 [Example 20, {1-[(2-ethyl-3-{5-[4-[(1-methylethyl)oxy]-3-(trifluoromethyl)phenyl]-1,2,4-thiadiazol-3-yl}phenyl)methyl]-4-piperidinyl}acetic acid] |
